Measurements as given in patent publication US20240336609A1, “PYRIDAZINONE COMPOUNDS AND USES THEREOF” (Edgewise Therapeutics, Inc., priority 2021, published 2024).
pIC50: −log10 of the molar value.

Assays:
[1] = molecular target: T1, skeletal myofibrils (myosin ATPase activity) (Oryctolagus cuniculus, UniProt Q28641); experiment: Skeletal Myofibril ATPase Assay (PK/LDH-coupled, NADH absorbance at 340 nm); type: biochemical; conditions: Rabbit Psoas myofibrils 0.25 mg/mL, ATP 0.05 mM, 1% DMSO vehicle = 100% activity
T1 construct: Rabbit Psoas Prep 11 (0.25 mg/mL)
Protocol: Overview: Myosin ATPase activity was assessed by using a coupled reaction system, in which ADP generated by the myosin ATPase function was coupled to the disappearance of NADH through the pyruvate kinase/lactate dehydrogenase (PK-LDH) system. Myosin ATPase activity produces ADP, which was used as a substrate for PK to produce pyruvate and regenerate ATP. The pyruvate was then used as a substrate by LDH to oxidize NADH to NAD+. The rate of the reaction was monitored through the time-dependent disappearance of NADH using absorbance at 340 nm. Inhibition of ATPase activity by the assayed compounds was indicated by a reduced rate of NADH loss, relative to vehicle-treated controls, over the experimental time window. To assess the selectivity of the assayed compounds for skeletal myofibrils, the compounds were counter-screened in cardiac myofibrils.
Materials: The following stock solutions and reagents were used in the Skeletal Myofibril ATPase Assay:
Stock Solutions of pCa buffer. Combine PIPES, CaCl2), and EGTA solutions with 70 mL of water. Adjust pH to 7.0 and bring final volume to 100 mL.
Buffer A & Buffer B. Butters were stored on ice until use.
Skeletal Myofibril ATPase Assay Procedure: BSA, ATP, NADH, PEP, and DTT solutions were thawed at room temperature, then transferred to ice. Pellet-frozen myofibrils (approximately twice the required volume) were transferred into a sufficiently large tube and capped. Myofibrils were thawed by rolling in a water bath for approximately 15 min at room temperature and cooled on ice. Buffers A and B were prepared by adjusting volumes as necessary for required number of wells and stored on ice. 0.5 μL of the compounds to be assayed were added into wells of a 384-well plate. Buffers A and B were mixed by inversion immediately prior to use, then 25 μL of each was dispensed using a Multidrop dispenser (Buffer A first, then Buffer B). The absorbance within the wells was measured at 340 nm, using a kinetic protocol in which the wells are read every 1.5-2 min for 1 h. The reaction rate was qualitatively assessed by subtracting the minimum absorbance value from the maximum value for each well, using either the SoftMax Pro plate reader software or a spreadsheet program such as Excel. Using GraphPad Prism 8.0, the data was normalized, with 100% activity defined as the absorbance change in the 1% DMSO vehicle wells and 0% assigned to no change in absorbance over the course of the experiment. The normalized data were fit to a variable-slope four-parameter logistic model, constraining the bottom to be 0 or greater. Compounds of Table 1 to 3 were tested and results of the assay appear in Table 4 herein. A=IC50 is less than or equal to 10 μM; B=IC50 is greater than 10 μM and less than 100 μM; C=IC50 is greater than 100 μM.

[2] = system: embryos from zebrafish model of DMD; conditions: cited from earlier work

| Molecule | pIC50 [1] | protection of muscles from pathological muscle derangement [2] |
| --- | --- | --- |
| 2-(5-(5-(4-chloropyridin-2-yl)- 1,2,4-oxadiazol-3-yl)-2-oxopyri- din-1(2H)-yl)-N-ethylacetamide [Compound 51] | 4.00 to 5.00 |  |
| 6-(3-(3-chlorophenyl)-1,2,4- thiadiazol-5-yl)-2-((3-(pyridin- 3-yl)-1,2,4-oxadiazol-5-yl)- methyl)pyridazin-3(2H)-one [Compound 22] | ≤ 4.00 |  |
| 6-(5-(3-chlorophenyl)-1,2,4- thiadiazol-3-yl)-2-((3-methyl- isoxazol-5-yl)methyl)pyridazin- 3(2H)-one [Compound 27] | ≥ 5.00 |  |
| 6-(5-(5-chloropyridin-3-yl)- 1,2,4-thiadiazol-3-yl)-2-((3- methylisoxazol-5-yl)methyl)- pyridazin-3(2H)-one [Compound 28] | ≤ 4.00 |  |
| Cc1ccc(S(=O)(=O)NCc2ccccc2)cc1 [N-benzyl-p-tolyl-sulfonamide (BTS), N-benzyl-p-tolyl-sulfonamide] |  | protect muscles from pathological muscle derangement |
| N-ethyl-2-(5-(5-morpholino- 1,2,4-thiadiazol-3-yl)-2-oxo- pyridin-1(2H)-yl)acetamide [Compound 11] | 4.00 to 5.00 |  |
| N-ethyl-2-(6-oxo-3-(5-(5- (trifluoromethyl)pyridin-3-yl)- 1,2,4-thiadiazol-3-yl)pyridazin- 1(6H)-yl)acetamide [Compound 19] | ≤ 4.00 |  |
